# Measurements from US7071293B1, “Alpha helical peptides with broad spectrum antimicrobial activity that are insensitive to salt” (priority 1999, dated 2006).
# “And” between values parts separate entries of the source, which are not always exact repeats. Identical values can stand only once. Like-named read-outs stand apart in the source and are kept apart here. Ends that are not written are not given here.
# Experiments:
# Enterococcus spp. = details: cited from earlier work
# [1] = test system: Haemophilus parainfluenzae; details: cited from earlier work
# [2] = test system: Bordetella bronchiseptica; details: cited from earlier work
# Streptococcus pneumoniae = details: cited from earlier work
# Streptococcus pyogenes = details: in µg/mL; cited from earlier work
# Enterococcus faecium = details: cited from earlier work
# Bacillus spp. = details: cited from earlier work
# Campylobacter jejuni = details: cited from earlier work
# Bacteroides fragilis = details: cited from earlier work
# Staphylococcus aureus = details: cited from earlier work
# Neisseria gonorrhoeae = details: cited from earlier work; for MIC90: in µg/mL
# Streptococcus spp. = details: cited from earlier work
# Haemophilus ducreyi = details: cited from earlier work
# Listeria monocytogenes = details: cited from earlier work
# Neisseria meningitidis = details: cited from earlier work
# Haemophilus influenzae = details: cited from earlier work; for MIC50 / MIC90: in µg/mL; for Range: MIC range
# Campylobacter pylori = details: cited from earlier work
# Streptococcus agalactiae = details: cited from earlier work
# [3] = test system: Branhamella (Moraxella) catarrhalis; details: MIC range; Branhamella (Moraxella) catarrhalis (β-lactamase producer); cited from earlier work
# Borrelia burgdorferi = details: cited from earlier work
# Mycoplasma pneumoniae = details: cited from earlier work
# Mycoplasma hominis = details: cited from earlier work
# S. aureus 930918-3 = details: 930918-3, pH 7.4
# [4] = test system: vancomycin and methicillin-resistant Gram-positives
# P. aeruginosa MR 3007 = details: MR 3007, pH 7.4
# E. coli ML-35p = details: Table 13; for MIC E. coli [NaCl] High: high salt underlay (10 mM sodium phosphate buffer +100 mM NaCl, pH 7.4); for MIC E. coli [NaCl] Low: low salt underlay (10 mM sodium phosphate buffer, pH 7.4)
# P. aeruginosa PAO1 [5] = details: avg ± sem
# P. aeruginosa PAO1 [6] = experiment: Relative time for killing (luminescence measured at intervals); format: cell-based; details: peptide at ten times its EC50 (SMAP29X-18D 15.7 X, SMAP29X-14A 17.4 X), 25 mM ionic strength
# MRSA ATCC 33591 = details: ATCC 33591, pH 7.4
# E. coli DH5α = details: for EC50: DH5α; for EC50 E. coli DH5α: ionic strength 25 mM, avg ± sem
# [7] = Staphylococcus aureus (penicillin susceptible)
# [8] = Haemophilus influenzae (non β-lactamase producer)
# [9] = Haemophilus influenzae (penicillin resistant)
# [10] = Haemophilus influenzae (penicillin susceptible)
# [11] = Haemophilus influenzae (β-lactamase producer)
# [12] = E.f 142-1498-1 (Enterococcus fecaelis), Van A (vancomycin-resistant)
# [13] = E.f 142-6873-3 (Enterococcus fecaelis), Van B (vancomycin-resistant)
compound,measurement,setting,value
"CC[C@H]1OC(=O)[C@H](C)[C@@H](O[C@H]2C[C@@](C)(OC)[C@@H](O)[C@H](C)O2)[C@H](C)[C@@H](O[C@@H]2O[C@H](C)C[C@H](N(C)C)[C@H]2O)[C@](C)(O)C[C@@H](C)C(=O)[C@H](C)[C@@H](O)[C@]1(C)O [ERYTHROMYCIN, erythromycin]",MIC50,Enterococcus spp.,2 mg/L
same,Range,[1]; MIC range,0.5–8
same,MIC50,[1],2 mg/L
same,MIC90,[1],4 mg/L
same,Range,[2]; MIC range,4–32
same,MIC50,[2],8 mg/L
same,MIC90,[2],32 mg/L
same,Range,Streptococcus pneumoniae; MIC range,0.03–0.25 and 0.015–0.06 and 0.015–0.25
same,MIC50,Streptococcus pneumoniae; in µg/mL,0.06 and 0.03
same,MIC90,Streptococcus pneumoniae; in µg/mL,0.03 and 0.06
same,MIC50,Streptococcus pyogenes,0.06 and 0.03
same,MIC50,Enterococcus faecium,1 mg/L
same,Range,Bacillus spp.; MIC range,0.03–2
same,MIC90,Bacillus spp.,2 mg/L
same,Range,Campylobacter jejuni; MIC range,0.5–8
same,MIC90,Campylobacter jejuni; in µg/mL,4 and 2
same,Range,Bacteroides fragilis; MIC range,0.25–16
same,MIC50,Bacteroides fragilis,1 mg/L
same,MIC90,Bacteroides fragilis,8 mg/L
same,MIC50,Staphylococcus aureus; Staphylococcus aureus (methicillin susceptible),0.5 mg/L
same,MIC50,Staphylococcus aureus; [7],0.5 mg/L
same,MIC90,Staphylococcus aureus; [7],0.5 mg/L
same,MIC50,Staphylococcus aureus; Staphylococcus aureus,0.5 mg/L
same,Range,"Neisseria gonorrhoeae; MIC range, Neisseria gonorrhoeae (non β-lactamase producer)",0.015–4 and 0.03–2
same,MIC90,Neisseria gonorrhoeae; Neisseria gonorrhoeae (non β-lactamase producer),2 and 1
same,MIC90,Neisseria gonorrhoeae; Neisseria gonorrhoeae (β-lactamase producer),2 and 4
same,MIC90,Neisseria gonorrhoeae; Neisseria gonorrhoeae,1
same,MIC50,Streptococcus spp.,0.03 mg/L
same,MIC50,Haemophilus ducreyi,0.004 mg/L
same,MIC90,Haemophilus ducreyi,0.06 mg/L
same,MIC50,Listeria monocytogenes,0.5 mg/L
same,Range,Neisseria meningitidis; MIC range,0.5–8
same,MIC50,Neisseria meningitidis,1 mg/L
same,MIC90,Neisseria meningitidis,8 mg/L
same,MIC50,Haemophilus influenzae; [8],2 and 4
same,MIC90,Haemophilus influenzae; [8],4 and 8
same,MIC50,Haemophilus influenzae; [9],8
same,MIC90,Haemophilus influenzae; [9],16
same,MIC50,Haemophilus influenzae; [10],8
same,MIC90,Haemophilus influenzae; [10],16
same,MIC50,Haemophilus influenzae; [11],4 and 2
same,MIC90,Haemophilus influenzae; [11],8 and 4
same,MIC50,Haemophilus influenzae; Haemophilus influenzae,2 and 1
same,MIC90,Haemophilus influenzae; Haemophilus influenzae,2 and 4
same,Range,Haemophilus influenzae; [9],8–16
same,Range,Haemophilus influenzae; [10],0.25–16
same,Range,Haemophilus influenzae; Haemophilus influenzae,0.5–8
same,Range,Campylobacter pylori; MIC range,0.25–16
same,MIC50,Campylobacter pylori,0.5 mg/L
same,Range,Streptococcus agalactiae; MIC range,0.03–0.25 and 0.015–0.06
same,MIC50,Streptococcus agalactiae,0.03 mg/L
same,MIC90,Streptococcus agalactiae,0.03 mg/L
same,Range,[3],0.06–1 and 0.03–0.25 and 0.06–8
same,MIC50,Borrelia burgdorferi,0.03 mg/L
same,MIC90,Borrelia burgdorferi,0.06 mg/L
"CCC[C@@H]1C[C@@H](C(=O)N[C@@H]([C@H]2O[C@H](SC)[C@H](O)[C@@H](O)[C@H]2O)[C@@H](C)O)N(C)C1 [LINCOMYCIN, lincomycin]",Range,Mycoplasma pneumoniae; MIC range,2–32
same,MIC50,Mycoplasma pneumoniae,8 mg/L
same,MIC90,Mycoplasma pneumoniae,32 mg/L
same,Range,"Staphylococcus aureus; MIC range, Staphylococcus aureus",0.5–512
same,MIC50,Staphylococcus aureus; Staphylococcus aureus,1 mg/L
same,MIC90,Staphylococcus aureus; Staphylococcus aureus,1 mg/L
same,Range,Mycoplasma hominis; MIC range,0.5–16
same,MIC50,Mycoplasma hominis,2 mg/L
same,MIC90,Mycoplasma hominis,4 mg/L
KNLRRIIRKIIHIIKKYG [SMAP29X-18D],MIC S. aureus [NaCl] High,S. aureus 930918-3,1.4 mg/L
same,MIC S. aureus [NaCl] Low,S. aureus 930918-3,2.0 mg/L
same,MIC,[4]; [12],32 mg/L
same,MIC,[4]; [13],64 mg/L
same,MIC P. aeruginosa [NaCl] High,P. aeruginosa MR 3007,0.5 mg/L
same,MIC P. aeruginosa [NaCl] Low,P. aeruginosa MR 3007,1.1 mg/L
same,MIC E. coli [NaCl] High,E. coli ML-35p,0.5 mg/L
same,MIC E. coli [NaCl] Low,E. coli ML-35p,0.8 mg/L
same,EC50 P. aeruginosa PAO1,P. aeruginosa PAO1 [5]; ionic strength 25 mM,0.29 ± 0.01 mg/L
same,EC50 P. aeruginosa PAO1,P. aeruginosa PAO1 [5]; ionic strength 175 mM,0.58 ± 0.05 mg/L
same,Half-time of Killing (min. avg. ± sem),P. aeruginosa PAO1 [6],2.9 min
same,MIC MRSA [NaCl] High,MRSA ATCC 33591,0.8 mg/L
same,MIC MRSA [NaCl] Low,MRSA ATCC 33591,8.7 mg/L
KRLRKFRNKIKEKLKKIG [CAP18-18],MIC S. aureus [NaCl] High,S. aureus 930918-3,29.0 mg/L
same,MIC S. aureus [NaCl] Low,S. aureus 930918-3,9.7 mg/L
same,EC50,E. coli DH5α,0.2 ± 0.03 µM
same,EC50 E. coli DH5α,E. coli DH5α,0.47 ± 0.06 mg/L
same,MIC P. aeruginosa [NaCl] High,P. aeruginosa MR 3007,3.2 mg/L
same,MIC P. aeruginosa [NaCl] Low,P. aeruginosa MR 3007,2.1 mg/L
same,MIC E. coli [NaCl] High,E. coli ML-35p,1.5 mg/L
same,MIC E. coli [NaCl] Low,E. coli ML-35p,2.8 mg/L
same,EC50 P. aeruginosa PAO1,P. aeruginosa PAO1 [5]; ionic strength 25 mM,1.05 ± 0.37 mg/L
same,EC50 P. aeruginosa PAO1,P. aeruginosa PAO1 [5]; ionic strength 175 mM,1.59 ± 0.29 mg/L
same,Half-time of Killing (min. avg. ± sem),P. aeruginosa PAO1 [6],19.5 ± 8.2 min
same,MIC MRSA [NaCl] High,MRSA ATCC 33591,>250 mg/L
same,MIC MRSA [NaCl] Low,MRSA ATCC 33591,14.9 mg/L
LRKFRNKIKEKLKKIGQKI [CAP18-19],MIC S. aureus [NaCl] High,S. aureus 930918-3,>79.1 mg/L
same,MIC S. aureus [NaCl] Low,S. aureus 930918-3,6.0 mg/L
same,EC50,E. coli DH5α,0.96 ± 0.13 µM
same,EC50 E. coli DH5α,E. coli DH5α,2.27 ± 0.30 mg/L
same,MIC P. aeruginosa [NaCl] High,P. aeruginosa MR 3007,26.7 mg/L
same,MIC P. aeruginosa [NaCl] Low,P. aeruginosa MR 3007,1.0 mg/L
same,MIC E. coli [NaCl] High,E. coli ML-35p,18.2 mg/L
same,MIC E. coli [NaCl] Low,E. coli ML-35p,0.4 mg/L
same,EC50 P. aeruginosa PAO1,P. aeruginosa PAO1 [5]; ionic strength 25 mM,1.65 ± 0.27 mg/L
same,EC50 P. aeruginosa PAO1,P. aeruginosa PAO1 [5]; ionic strength 175 mM,3.06 ± 0.36 mg/L
same,Half-time of Killing (min. avg. ± sem),P. aeruginosa PAO1 [6],8.0 ± 1.6 min
same,MIC MRSA [NaCl] High,MRSA ATCC 33591,>79.1 mg/L
same,MIC MRSA [NaCl] Low,MRSA ATCC 33591,4.5 mg/L
LRRIIRKIIHIIKK-NH2 [SMAP29X-14A],MIC S. aureus [NaCl] High,S. aureus 930918-3,1.9 mg/L
same,MIC S. aureus [NaCl] Low,S. aureus 930918-3,1.1 mg/L
same,MIC,[4]; [12],>64 mg/L
same,MIC,[4]; [13],>64 mg/L
same,MIC P. aeruginosa [NaCl] High,P. aeruginosa MR 3007,2.7 mg/L
same,MIC P. aeruginosa [NaCl] Low,P. aeruginosa MR 3007,2.0 mg/L
same,MIC E. coli [NaCl] High,E. coli ML-35p,0.9 mg/L
same,MIC E. coli [NaCl] Low,E. coli ML-35p,2.9 mg/L
same,EC50 P. aeruginosa PAO1,P. aeruginosa PAO1 [5]; ionic strength 25 mM,0.23 ± 0.03 mg/L
same,EC50 P. aeruginosa PAO1,P. aeruginosa PAO1 [5]; ionic strength 175 mM,1.59 ± 0.22 mg/L
same,Half-time of Killing (min. avg. ± sem),P. aeruginosa PAO1 [6],20.9 min
same,MIC MRSA [NaCl] High,MRSA ATCC 33591,>79.1 mg/L
same,MIC MRSA [NaCl] Low,MRSA ATCC 33591,7.6 mg/L
RKRLRKFRNKIKEKLKKIGQKI [CAP18-22],MIC S. aureus [NaCl] High,S. aureus 930918-3,>79.1 mg/L
same,MIC S. aureus [NaCl] Low,S. aureus 930918-3,7.9 mg/L
same,EC50,E. coli DH5α,0.52 ± 0.16 µM
same,EC50 E. coli DH5α,E. coli DH5α,1.47 ± 0.44 mg/L
same,MIC P. aeruginosa [NaCl] High,P. aeruginosa MR 3007,7.6 mg/L
same,MIC P. aeruginosa [NaCl] Low,P. aeruginosa MR 3007,0.7 mg/L
same,MIC E. coli [NaCl] High,E. coli ML-35p,1.7 mg/L
same,MIC E. coli [NaCl] Low,E. coli ML-35p,0.1 mg/L
same,EC50 P. aeruginosa PAO1,P. aeruginosa PAO1 [5]; ionic strength 25 mM,1.38 ± 0.49 mg/L
same,EC50 P. aeruginosa PAO1,P. aeruginosa PAO1 [5]; ionic strength 175 mM,0.88 ± 0.12 mg/L
same,Half-time of Killing (min. avg. ± sem),P. aeruginosa PAO1 [6],9.8 ± 2.5 min
same,MIC MRSA [NaCl] High,MRSA ATCC 33591,>79.1 mg/L
same,MIC MRSA [NaCl] Low,MRSA ATCC 33591,8.1 mg/L
